Each structure is given as a SMILES string.

For one experiment, the target named is JAK 1 (Homo sapiens (Human), UniProt P23458). Briefly: Biochemical potency on JAK1, TR-FRET LANCE Ultra kinase assay (compounds 1-92). As to conditions: ATP at Km, read-out: JAK1 inhibitory activity (pIC50 class) (converted). Here is the method:
(§1) Biochemical Potency on JAK1, JAK2, JAK3 and Tyk2 Assay Principle The objective of this study was to assess the capability of compounds to inhibit all 4 JAK isoforms activity in a cell-free environment. Assay for JAK 1, JAK 2, JAK 3 and TYK2 were performed by Time-resolved fluorescence resonance energy transfer (TR-FRET) technology. It consists in the interaction of two labelled binding partners detected by the energy transfer from an excited donor to an acceptor dye and measurement of light emission by the acceptor dye. LANCE Ultra kinase assay was used. In presence of JAK 1, JAK 2, JAK 3 and TYK2 kinases and ATP (corresponding to Km), the ULight peptide substrate (LANCE Ulight-JAK-1 ([…]) Peptide, Perkin Elmer, TRF0121) is phosphorylated. It is then captured by Eu-anti-phospho-substrate antibody (LANCE Eu-W1024 Anti-phosphotyrosine (PT66), Perkin Elmer, AD0069), which bring the Eu-chelate donor and ULight acceptor dyes into close proximity. Upon excitation at 320 nm, the Eu-chelate transfers its energy to the ULight dye, resulting in a fluorescent light emission at 665 nm. Compound Testing Serial dilutions of compounds in pure DMSO are prepared from 10 mM DMSO stock solutions. Compounds were tested in 384-well plate for 11 consecutive 5-fold dilutions starting from 20 μM highest concentration (20 μM-[…]). 200 nL of compound were transferred from mother plate to test plate by using Mosquito (TTP labtech). Assay was performed in 384-well Perkin Elmer test plate in 20 μL assay volume (kinase reaction) and 40 μL total volume (stopping reagent and antibody detection reagents). In 10 μL of substrate solution (peptide+ATP) 30/50/20/10 nM of peptide and 20/0.7/0.2/12 μM of ATP were added for JAK 1, JAK 2, JAK 3 and TYK2 respectively. 10 μL of enzyme solution was added to kinase reaction at these concentrations: 0.15/0.083/0.025/0.144 ng/μL of JAK 1, JAK 2, JAK 3 and TYK2 respectively. After shaking and 1.5 h of incubation at r.t., 20 μL of Stop (10 μL EDTA) and Detection mixture (10 μL Europium-anti-phospho antibody, final: 0.5 nM) were added. Reading was performed after 1 h of incubation on a EnVision 2104 reader (Perkin Elmer). Calculation of IC50 data, curves and QC analysis was performed by using Excel tool and GraphPadPrism software, v9. Briefly, individual concentration-effect curves are generated by plotting the logarithm of the tested concentration of tested compounds (X) vs. corresponding percent inhibition values (Y) using least squares (ordinary) fit. Best fit IC50 values are calculated using Log(inhibitor) vs. normalized response-Variable slope equation, where Y=100/(1+10^((Log IC50-X)*HillSlope)). QC criteria parameters (Z', S:B, R2, HillSlope) were checked for every IC50 curve. Calculation of IC50 data, curves and QC analysis were made using Excel tools and GraphPadPrism software. QC criteria parameters: Z'≥0.5, Hill Slope range 0.5 to 5, S:B>2.

The next experiment addresses TYK2 (Homo sapiens (Human), UniProt P29597). Kind of experiment: Biochemical potency on Tyk2, TR-FRET LANCE Ultra kinase assay (compounds 1-92). The conditions noted are these: ATP at Km, read-out: Tyk2 inhibitory activity (pIC50 class) (converted). Here is the method:
as §1

The target in the next experiment is JAK 3 (Homo sapiens (Human), UniProt P52333). Briefly: Biochemical potency on JAK3, TR-FRET LANCE Ultra kinase assay (compounds 1-92). The conditions noted are these: ATP at Km, read-out: JAK3 inhibitory activity (pIC50 class) (converted). Here is the method:
as §1
On the technique in general: TR-FRET usually uses a lanthanide donor and a delayed reading to cut background.

For another experiment, the target named is JAK 2 (Homo sapiens (Human), UniProt O60674). Briefly: Biochemical potency on JAK2, TR-FRET LANCE Ultra kinase assay (compounds 1-92). As to conditions: ATP at Km, read-out: JAK2 inhibitory activity (pIC50 class) (converted). Here is the method:
as §1

JAK 1, sequence (P23458 whole entry, canonical isoform): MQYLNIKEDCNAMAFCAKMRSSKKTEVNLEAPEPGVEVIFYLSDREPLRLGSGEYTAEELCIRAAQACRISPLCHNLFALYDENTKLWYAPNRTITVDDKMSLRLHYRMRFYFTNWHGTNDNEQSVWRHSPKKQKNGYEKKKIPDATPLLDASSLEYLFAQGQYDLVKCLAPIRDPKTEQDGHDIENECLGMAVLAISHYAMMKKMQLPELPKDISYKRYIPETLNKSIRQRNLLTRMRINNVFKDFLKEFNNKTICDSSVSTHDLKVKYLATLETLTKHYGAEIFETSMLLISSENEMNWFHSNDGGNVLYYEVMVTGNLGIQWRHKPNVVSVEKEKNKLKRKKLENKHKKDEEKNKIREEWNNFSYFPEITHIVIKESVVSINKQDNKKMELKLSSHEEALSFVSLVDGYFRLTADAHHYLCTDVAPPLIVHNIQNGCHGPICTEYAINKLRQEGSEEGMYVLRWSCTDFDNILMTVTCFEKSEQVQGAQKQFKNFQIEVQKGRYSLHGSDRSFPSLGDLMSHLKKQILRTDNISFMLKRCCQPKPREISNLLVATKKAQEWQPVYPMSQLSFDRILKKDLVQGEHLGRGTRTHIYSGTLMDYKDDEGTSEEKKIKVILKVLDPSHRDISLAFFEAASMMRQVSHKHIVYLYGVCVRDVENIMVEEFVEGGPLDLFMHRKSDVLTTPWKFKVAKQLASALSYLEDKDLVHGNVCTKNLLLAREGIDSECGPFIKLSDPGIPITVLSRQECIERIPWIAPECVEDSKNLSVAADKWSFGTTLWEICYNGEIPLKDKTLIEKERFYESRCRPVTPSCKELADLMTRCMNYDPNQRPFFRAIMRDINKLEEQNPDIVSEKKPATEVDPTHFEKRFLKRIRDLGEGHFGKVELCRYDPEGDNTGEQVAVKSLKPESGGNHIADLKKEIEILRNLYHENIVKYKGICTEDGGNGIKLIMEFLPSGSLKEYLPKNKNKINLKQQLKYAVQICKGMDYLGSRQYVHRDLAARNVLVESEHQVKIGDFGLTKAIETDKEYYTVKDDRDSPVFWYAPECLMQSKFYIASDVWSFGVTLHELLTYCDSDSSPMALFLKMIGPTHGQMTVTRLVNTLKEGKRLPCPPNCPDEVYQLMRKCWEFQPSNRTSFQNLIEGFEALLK
JAK 3, sequence (P52333 whole entry): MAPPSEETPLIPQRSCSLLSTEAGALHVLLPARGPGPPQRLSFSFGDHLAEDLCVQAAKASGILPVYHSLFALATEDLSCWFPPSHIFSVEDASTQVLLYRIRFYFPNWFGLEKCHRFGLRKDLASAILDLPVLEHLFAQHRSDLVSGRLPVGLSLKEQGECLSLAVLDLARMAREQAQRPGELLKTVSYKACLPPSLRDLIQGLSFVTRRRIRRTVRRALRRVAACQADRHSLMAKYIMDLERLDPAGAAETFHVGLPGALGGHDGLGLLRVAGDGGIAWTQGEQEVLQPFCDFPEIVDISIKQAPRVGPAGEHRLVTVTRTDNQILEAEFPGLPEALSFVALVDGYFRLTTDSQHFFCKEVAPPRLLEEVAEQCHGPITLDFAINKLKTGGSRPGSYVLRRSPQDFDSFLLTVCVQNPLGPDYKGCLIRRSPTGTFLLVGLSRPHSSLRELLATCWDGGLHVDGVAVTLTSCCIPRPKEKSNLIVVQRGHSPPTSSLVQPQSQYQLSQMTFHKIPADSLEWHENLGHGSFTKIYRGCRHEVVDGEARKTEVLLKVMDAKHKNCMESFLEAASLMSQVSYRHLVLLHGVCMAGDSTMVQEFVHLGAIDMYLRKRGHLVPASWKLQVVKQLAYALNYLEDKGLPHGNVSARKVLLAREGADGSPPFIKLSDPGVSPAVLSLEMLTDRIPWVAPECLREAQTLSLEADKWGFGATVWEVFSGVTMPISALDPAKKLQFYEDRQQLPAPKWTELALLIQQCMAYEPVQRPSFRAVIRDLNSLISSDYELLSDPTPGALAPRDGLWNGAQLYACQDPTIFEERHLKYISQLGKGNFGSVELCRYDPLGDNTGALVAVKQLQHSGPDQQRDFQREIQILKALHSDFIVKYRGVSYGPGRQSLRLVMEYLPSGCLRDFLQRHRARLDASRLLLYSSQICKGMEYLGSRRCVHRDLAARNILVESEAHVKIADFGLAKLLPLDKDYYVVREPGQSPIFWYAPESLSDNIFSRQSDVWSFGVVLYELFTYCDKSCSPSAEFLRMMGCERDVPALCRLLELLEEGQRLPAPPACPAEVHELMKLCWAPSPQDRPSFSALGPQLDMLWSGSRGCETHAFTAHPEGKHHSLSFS
JAK 2, sequence (O60674 whole entry): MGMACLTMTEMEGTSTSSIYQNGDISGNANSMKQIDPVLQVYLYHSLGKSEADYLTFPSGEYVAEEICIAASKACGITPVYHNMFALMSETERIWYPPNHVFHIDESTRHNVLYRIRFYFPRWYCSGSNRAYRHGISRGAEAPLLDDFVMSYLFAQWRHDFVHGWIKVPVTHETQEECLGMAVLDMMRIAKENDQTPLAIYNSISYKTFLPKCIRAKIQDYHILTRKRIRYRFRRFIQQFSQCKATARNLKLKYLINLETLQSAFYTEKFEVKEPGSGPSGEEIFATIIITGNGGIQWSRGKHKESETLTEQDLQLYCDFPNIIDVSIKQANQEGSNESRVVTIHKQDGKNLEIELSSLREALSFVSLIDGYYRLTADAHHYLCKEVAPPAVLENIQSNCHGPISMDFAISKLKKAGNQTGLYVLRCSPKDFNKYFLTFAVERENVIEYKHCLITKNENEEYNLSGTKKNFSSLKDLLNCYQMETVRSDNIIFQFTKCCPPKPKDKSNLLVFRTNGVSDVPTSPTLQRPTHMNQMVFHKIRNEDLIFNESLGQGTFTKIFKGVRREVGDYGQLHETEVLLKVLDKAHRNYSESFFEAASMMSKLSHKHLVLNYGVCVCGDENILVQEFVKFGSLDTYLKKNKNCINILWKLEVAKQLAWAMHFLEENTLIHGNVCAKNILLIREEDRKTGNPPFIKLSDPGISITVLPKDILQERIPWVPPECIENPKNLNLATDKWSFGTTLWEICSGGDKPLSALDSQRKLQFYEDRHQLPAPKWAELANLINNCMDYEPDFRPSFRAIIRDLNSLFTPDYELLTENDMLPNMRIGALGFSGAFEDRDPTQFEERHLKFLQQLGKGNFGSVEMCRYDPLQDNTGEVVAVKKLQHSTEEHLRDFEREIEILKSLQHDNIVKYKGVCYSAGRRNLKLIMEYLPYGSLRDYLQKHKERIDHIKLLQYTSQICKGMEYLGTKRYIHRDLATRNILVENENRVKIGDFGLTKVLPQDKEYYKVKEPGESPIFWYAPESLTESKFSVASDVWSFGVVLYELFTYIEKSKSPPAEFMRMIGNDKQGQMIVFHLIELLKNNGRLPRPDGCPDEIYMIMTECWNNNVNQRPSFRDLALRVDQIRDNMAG
TYK2, sequence (P29597 whole entry): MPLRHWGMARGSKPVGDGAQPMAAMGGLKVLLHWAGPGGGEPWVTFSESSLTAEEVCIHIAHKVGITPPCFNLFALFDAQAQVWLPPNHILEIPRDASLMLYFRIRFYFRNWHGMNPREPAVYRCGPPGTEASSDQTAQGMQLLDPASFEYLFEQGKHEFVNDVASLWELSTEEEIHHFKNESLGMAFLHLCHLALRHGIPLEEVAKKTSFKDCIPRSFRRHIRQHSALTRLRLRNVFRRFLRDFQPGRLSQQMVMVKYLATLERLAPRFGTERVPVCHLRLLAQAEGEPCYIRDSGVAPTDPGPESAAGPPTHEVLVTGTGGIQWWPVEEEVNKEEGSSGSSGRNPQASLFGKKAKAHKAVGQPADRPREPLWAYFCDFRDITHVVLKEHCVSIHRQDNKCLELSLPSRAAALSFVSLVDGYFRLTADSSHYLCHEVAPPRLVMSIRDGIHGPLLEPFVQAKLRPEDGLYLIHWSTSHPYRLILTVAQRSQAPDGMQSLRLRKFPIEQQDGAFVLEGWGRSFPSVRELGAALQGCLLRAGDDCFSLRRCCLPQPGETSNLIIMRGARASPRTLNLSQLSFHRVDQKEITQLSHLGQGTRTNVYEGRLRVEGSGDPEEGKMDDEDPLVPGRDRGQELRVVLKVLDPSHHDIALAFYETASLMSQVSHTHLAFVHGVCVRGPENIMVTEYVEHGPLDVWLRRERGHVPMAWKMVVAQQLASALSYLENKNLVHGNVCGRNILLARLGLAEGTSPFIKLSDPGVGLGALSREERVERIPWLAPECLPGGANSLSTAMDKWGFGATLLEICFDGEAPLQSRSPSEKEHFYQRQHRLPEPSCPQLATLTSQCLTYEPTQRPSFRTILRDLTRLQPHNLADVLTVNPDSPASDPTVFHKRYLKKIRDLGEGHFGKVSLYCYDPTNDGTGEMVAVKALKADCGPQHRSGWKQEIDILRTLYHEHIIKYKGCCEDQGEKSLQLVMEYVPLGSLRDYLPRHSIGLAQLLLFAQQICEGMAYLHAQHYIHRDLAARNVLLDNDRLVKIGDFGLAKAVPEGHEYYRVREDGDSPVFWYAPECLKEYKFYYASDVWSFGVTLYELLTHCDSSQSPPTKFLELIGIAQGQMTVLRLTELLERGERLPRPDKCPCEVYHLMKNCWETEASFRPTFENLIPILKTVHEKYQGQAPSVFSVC

For `COc1cc(NS(C)(=O)=O)ccc1-n1nc(NCC2CN(C)CCO2)c2cnc(-c3cnn4cccnc34)cc21` (racemic) [Example 28, N-(3-methoxy-4-(3-(((4-methylmorpholin-2-yl)methyl)amino)-6-(pyrazolo[1,5-a]pyrimidin-3-yl)-1H-pyrazolo[4,3-c]pyridin-1-yl)phenyl)methanesulfonamide], the IC50 at JAK 1 was at most 5.01 nM; on TYK2, 5.01 to 50.1 nM; on JAK 3, at most 5.01 nM; at JAK 2, at most 5.01 nM.

In the case of `COc1cc(NS(C)(=O)=O)ccc1-n1nc(NC(=O)C2CCN(C)C2)c2cnc(-c3cnn4cccnc34)cc21` (racemic) [Example 42, N-(1-(2-methoxy-4-(methylsulfonamido)phenyl)-6-(pyrazolo[1,5-a]pyrimidin-3-yl)-1H-pyrazolo[4,3-c]pyridin-3-yl)-1-methylpyrrolidine-3-carboxamide], the IC50 on JAK 1, on TYK2, on JAK 3 and at JAK 2 was 5.01 to 50.1 nM throughout.

`COc1cc(NS(C)(=O)=O)ccc1-n1nc(C)c2cnc(-c3cnn4cccnc34)cc21` [Example 1, N-(3-methoxy-4-(3-methyl-6-(pyrazolo[1,5-a]pyrimidin-3-yl)-1H-pyrazolo[4,3-c]pyridin-1-yl)phenyl)methanesulfonamide]: the IC50 at JAK 1 was at most 5.01 nM; at TYK2 it was 5.01 to 50.1 nM; at JAK 3, at most 5.01 nM; at JAK 2, at most 5.01 nM.

Consider `COc1cc(NS(=O)(=O)CC2CCCO2)ccc1-n1nc(C)c2cnc(-c3cnn4cccnc34)cc21` (stereo not shown) [Example 2, N-(3-methoxy-4-(3-methyl-6-(pyrazolo[1,5-a]pyrimidin-3-yl)-1H-pyrazolo[4,3-c]pyridin-1-yl)phenyl)-1-(tetrahydrofuran-2-yl)methanesulfonamide], for which the IC50 was 5.01 to 50.1 nM on JAK 1, 5.01 to 50.1 nM at TYK2, 5.01 to 50.1 nM at JAK 3 and at most 5.01 nM on JAK 2.

For the compound `COc1cc(NS(=O)(=O)C2CCOCC2)ccc1-n1nc(C)c2cnc(-c3cnn4cccnc34)cc21` [Example 3, N-(3-methoxy-4-(3-methyl-6-(pyrazolo[1,5-a]pyrimidin-3-yl)-1H-pyrazolo[4,3-c]pyridin-1-yl)phenyl)tetrahydro-2H-pyran-4-sulfonamide], the IC50 on JAK 1 is 5.01 to 50.1 nM; at TYK2 it was above 50.1 nM; at JAK 3, 5.01 to 50.1 nM; at JAK 2 it was at most 5.01 nM.

On to `CCCS(=O)(=O)Nc1ccc(-n2nc(C)c3cnc(-c4cnn5cccnc45)cc32)c(OC)c1` [Example 4, N-(3-methoxy-4-(3-methyl-6-(pyrazolo[1,5-a]pyrimidin-3-yl)-1H-pyrazolo[4,3-c]pyridin-1-yl)phenyl)propane-1-sulfonamide], for which the IC50 was at most 5.01 nM on JAK 1, 5.01 to 50.1 nM at TYK2, at most 5.01 nM at JAK 3 and at most 5.01 nM at JAK 2.

For `COc1cc(NS(=O)(=O)CC2CC2)ccc1-n1nc(C)c2cnc(-c3cnn4cccnc34)cc21` [Example 5, 1-cyclopropyl-N-(3-methoxy-4-(3-methyl-6-(pyrazolo[1,5-a]pyrimidin-3-yl)-1H-pyrazolo[4,3-c]pyridin-1-yl)phenyl)methanesulfonamide], the IC50 is at most 5.01 nM at JAK 1, 5.01 to 50.1 nM at TYK2, at most 5.01 nM at JAK 3 and at most 5.01 nM on JAK 2.

Regarding `COc1cc(NS(=O)(=O)C2CC2)ccc1-n1nc(C)c2cnc(-c3cnn4cccnc34)cc21` [Example 6, N-(3-methoxy-4-(3-methyl-6-(pyrazolo[1,5-a]pyrimidin-3-yl)-1H-pyrazolo[4,3-c]pyridin-1-yl)phenyl)cyclopropanesulfonamide], the IC50 on JAK 1 is at most 5.01 nM; at TYK2, 5.01 to 50.1 nM; at JAK 3, at most 5.01 nM; at JAK 2 it was at most 5.01 nM.

With `Cc1nn(-c2ccc(NS(C)(=O)=O)cc2OC(F)F)c2cc(-c3cnn4cccnc34)ncc12` [Example 7, N-(3-(difluoromethoxy)-4-(3-methyl-6-(pyrazolo[1,5-a]pyrimidin-3-yl)-1H-pyrazolo[4,3-c]pyridin-1-yl)phenyl)methanesulfonamide], the IC50 on JAK 1 was at most 5.01 nM; at TYK2, 5.01 to 50.1 nM; at JAK 3, at most 5.01 nM; at JAK 2, at most 5.01 nM.

For `COc1cc(NS(=O)(=O)C2COC2)ccc1-n1nc(C)c2cnc(-c3cnn4cccnc34)cc21` [Example 8, N-(3-methoxy-4-(3-methyl-6-(pyrazolo[1,5-a]pyrimidin-3-yl)-1H-pyrazolo[4,3-c]pyridin-1-yl)phenyl)oxetane-3-sulfonamide], the IC50 at JAK 1 was at most 5.01 nM; at TYK2 it was 5.01 to 50.1 nM; on JAK 3 it was at most 5.01 nM; on JAK 2, at most 5.01 nM.

As to `COc1cc(NS(=O)(=O)C2CCOC2)ccc1-n1nc(C)c2cnc(-c3cnn4cccnc34)cc21` (stereo not shown) [Example 9, N-(3-methoxy-4-(3-methyl-6-(pyrazolo[1,5-a]pyrimidin-3-yl)-1H-pyrazolo[4,3-c]pyridin-1-yl)phenyl)tetrahydrofuran-3-sulfonamide], the IC50 at JAK 1 was 5.01 to 50.1 nM; at TYK2 it was 5.01 to 50.1 nM; on JAK 3 it was 5.01 to 50.1 nM; at JAK 2, at most 5.01 nM.

As to `COc1cc(NS(=O)(=O)c2cnn(C)c2)ccc1-n1nc(C)c2cnc(-c3cnn4cccnc34)cc21` [Example 10, N-(3-methoxy-4-(3-methyl-6-(pyrazolo[1,5-a]pyrimidin-3-yl)-1H-pyrazolo[4,3-c]pyridin-1-yl)phenyl)-1-methyl-1H-pyrazole-4-sulfonamide], the IC50 at JAK 1 is at most 5.01 nM; at TYK2, 5.01 to 50.1 nM; at JAK 3, 5.01 to 50.1 nM; on JAK 2 it was at most 5.01 nM.

As for `COc1cc(NS(C)(=O)=O)cnc1-n1nc(C)c2cnc(-c3cnn4cccnc34)cc21` [Example 11, N-(5-methoxy-6-(3-methyl-6-(pyrazolo[1,5-a]pyrimidin-3-yl)-1H-pyrazolo[4,3-c]pyridin-1-yl)pyridin-3-yl)methanesulfonamide], the IC50 on JAK 1 is at most 5.01 nM; on TYK2, above 50.1 nM; at JAK 3, at most 5.01 nM; on JAK 2, at most 5.01 nM.

For the compound `COc1cc(NS(C)(=O)=O)c(F)cc1-n1nc(C)c2cnc(-c3cnn4cccnc34)cc21` [Example 12, N-(2-fluoro-5-methoxy-4-(3-methyl-6-(pyrazolo[1,5-a]pyrimidin-3-yl)-1H-pyrazolo[4,3-c]pyridin-1-yl)phenyl)methanesulfonamide], the IC50 at JAK 1 is 5.01 to 50.1 nM; on TYK2, above 50.1 nM; on JAK 3 it was 5.01 to 50.1 nM; at JAK 2 it was 5.01 to 50.1 nM.

Turning to `COc1cc(NS(=O)(=O)CCC(N)=O)ccc1-n1nc(C)c2cnc(-c3cnn4cccnc34)cc21` [Example 13, 3-(N-(3-methoxy-4-(3-methyl-6-(pyrazolo[1,5-a]pyrimidin-3-yl)-1H-pyrazolo[4,3-c]pyridin-1-yl)phenyl)sulfamoyl)propanamide], the IC50 on JAK 1 was at most 5.01 nM; at TYK2 it was 5.01 to 50.1 nM; on JAK 3, at most 5.01 nM; on JAK 2 it was at most 5.01 nM.

As for `COc1cc(NS(=O)(=O)CC(N)=O)ccc1-n1nc(C)c2cnc(-c3cnn4cccnc34)cc21` [Example 14, 2-(N-(3-methoxy-4-(3-methyl-6-(pyrazolo[1,5-a]pyrimidin-3-yl)-1H-pyrazolo[4,3-c]pyridin-1-yl)phenyl)sulfamoyl)acetamide], the IC50 at JAK 1 is at most 5.01 nM; at TYK2 it was 5.01 to 50.1 nM; on JAK 3 it was at most 5.01 nM; at JAK 2, at most 5.01 nM.

Values taken from patent US20240209001A1, “HETEROCYCLIC DERIVATIVES AS JANUS KINASE INHIBITORS” (CHIESI FARMACEUTICI S.P. A., priority 2021, published 2024).
